According to US8685372B2, “Peptides and aptamers for targeting of neuron or nerves” (The Regents of the University of California, priority 2009, dated 2014):
“Also recorded” adds a separate entry of the source. No end group written: not given here. heptamethinecyanine derivative = not defined here; Cy5 = Cy5 cyanine fluorescent dye label; 5,6FAM = 5(6)-carboxyfluorescein label

Assays:
sciatic nerves = test: In vivo nerve labeling with fluorescently labeled peptides (nerve versus adjacent non-nerve tissue); design: species or system mice; details: for Nerve contrast: derivatives of peptide SEQ ID NO: 4; for nerve to muscle contrast: FAM-labeled peptides intravenously, living mice, after wash-out
Procedure: To test the nerve binding affinity of each of the isolated peptide sequences in vivo, carboxyfluorescein (FAM)-labeled peptides were injected intravenously into living mice. Following a wash-out period, the contrast between nerve and muscle binding of the labeled peptides was evaluated.
Wild-type albino C57BL6 (Jackson Laboratory) or SKH1 (Charles River Laboratories) mice were treated intravenously with 150 nmoles of fluorescently labeled SEQ ID NO:4 via tail vein injection. Following a 2-3 hour wash-out period for SEQ ID NO:25 or 5-6 hours for SEQ ID NO:31, mice were anesthetized with ketamine and midazolam (80 mg/kg intraperitoneally), a skin incision was made over the dorsal surface of the hind, legs and the sciatic nerves exposed bilaterally. […] Nerves and adjacent non-nerve tissue was delineated with Image J and relative fluorescence was measured. Following background subtraction using dark current measurements and measurements of a standard, the ratios of peptide binding to nerve versus adjacent non-nerve tissue were calculated.

dissected nerve tissue = test: In vitro nerve binding: dissected nerve tissue incubated with peptide; design: species or system mice; details: 100 nM peptide, one hour incubation
Procedure: To test the nerve binding affinity of each of the isolated peptide sequences in vitro, dissected nerve tissue was removed from mice and incubated for one hour with 100 nM of each peptide, including a control peptide made up of amino acids that were contained within the various phages selected and sequenced, but in a mixed-up order and designed without repeating any single amino acid except for glycine (which was added to the C-terminus as a flexible linker).

sciatic nerve = test: Histology: localization of binding in nerves of thy1-YFP transgenic mice; format: in vivo
Excerpt: To evaluate the localization of SEQ ID NO:4 binding in nerves, we treated thy1-YFP transgenic mice whose axons are genetically encoded with YFP under a neuron specific promoter (Feng et al, Imaging neuronal subsets in transgenic mice expressing multiple spectral variants of GFP. Neuron, 2000) with SEQ ID NO:31. […] These deeper nerve structures were not easily seen either with brightfield (FIG. 5A, insert) or YFP (FIG. 5B, insert) imaging. To evaluate the localization of SEQ ID NO:4 binding on a cellular level, we imaged cryosections (3-5 μm) of nerves and attached muscles from thy1-YFP animals treated with SEQ ID NO:31.

[1] = Peptide biodistribution and metabolism (organ fluorescence, LC-MS and MALDI of urine); format: in vivo, mice
Procedure: (§1) To evaluate the biodistribution of the peptide following systemic administration, organs were harvested from mice treated with SEQ ID NO:4 and fluorescence uptake was evaluated. […] To evaluate the metabolism of the peptide as it passed through the renal system, liquid chromatography-mass spectrometry (LC-MS, Agilent) tracing was used to compare urine obtained from mice injected with SEQ ID NO:25 or SEQ ID NO:31 intravenously versus urine from normal mice spiked with the native SEQ ID NO:25 or SEQ ID NO:31. […] Next, matrix-assisted. laser desorption/ionization (MALDI) was used to evaluate the nature of the modification to the peptide as it was metabolized.
as §1, with “NO:25 and” for “NO:25 or”, “ID NO:3” for “ID NO:31”, “ID NO:25.” for “ID NO:25 or SEQ ID NO:31.”, “Next, matrix-assisted” for “Next, matrix-assisted.”

acetyl- SHSNTQTLAKAPEHTG(L-cys)(5,6FAM)-amide (Ac-SHSNTQTLAKAPEHTGC(5,6FAM)-NH2; not fully specified) [SEQ ID NO: 46]
Nerve contrast (sciatic nerves): Medium/High

acetyl- SHSNTQTLAKAPEHTG-(D-cys)-(cy5)-amide (Ac-SHSNTQTLAKAPEHTG; not fully specified (C-terminus))
Nerve contrast (sciatic nerves): Medium

acetyl- SHSNTQTLAKAPEHTG-(L-cys-)-(TAMRA)-amide (Ac-SHSNTQTLAKAPEHTGC(TAMRA)-NH2) [SEQ ID NO: 49]
Nerve contrast (sciatic nerves): Medium

acetyl- SHSNTQTLAKAPEHTG-(L-cys)-(Texas Red)-amide (Ac-SHSNTQTLAKAPEHTGC(Texas Red)-NH2) [SEQ ID NO: 50]
Nerve contrast (sciatic nerves): Medium

acetyl- SHSNTQTLAKAPEHTG-(D-cys)-(5,6FAM)-amide (Ac-SHSNTQTLAKAPEHTG; not fully specified (C-terminus); also: 5,6FAM on C-terminal D-Cys, attachment site not given here)
Nerve contrast (sciatic nerves): Medium

acetyl- SHSNTQTLAKAPEHTG-(L-cys)-(IR800CW) (Ac-SHSNTQTLAKAPEHTGC(IR800CW); not fully specified) [SEQ ID NO: 48]
Nerve contrast (sciatic nerves): Low

KSLSRHDHIHHH (peptide that specifically binds to a neuron, nerve, or component of either) [SEQ ID NO:3]
nerve to muscle contrast (sciatic nerves): exhibited nerve to muscle contrast, although at a lower level than that of SEQ ID NO:4
uptake/binding to dissected nerve tissue compared to no peptide or control peptide (dissected nerve tissue): two-fold increase over control to no difference from control

acetyl- SHSNTQTLAKAPEHTG-(L-cys)-(heptamethinecyanine derivative) (Ac-SHSNTQTLAKAPEHTGC(heptamethinecyanine derivative); not fully specified; reading uncertain) [SEQ ID NO: 52]
Nerve contrast (sciatic nerves): Low

Free amine- SHSNTQTLAKAPEHTG-(L-cys)-(5,6FAM)-amide (H-SHSNTQTLAKAPEHTGC(5,6FAM)-NH2; not fully specified) [SEQ ID NO: 47]
Nerve contrast (sciatic nerves): Medium/High

DFTKTSPLGIH (peptide that specifically binds to a neuron, nerve, or component of either) [SEQ ID NO:5]
nerve to muscle contrast (sciatic nerves): exhibited nerve to muscle contrast, although at a lower level than that of SEQ ID NO:4
uptake/binding to dissected nerve tissue compared to no peptide or control peptide (dissected nerve tissue): two-fold increase over control to no difference from control

AHHNSWKAKHHS (peptide that specifically binds to a neuron, nerve, or component of either) [SEQ ID NO:1]
nerve to muscle contrast (sciatic nerves): little significant nerve-to muscle contrast
uptake/binding to dissected nerve tissue compared to no peptide or control peptide (dissected nerve tissue): two-fold increase over control to no difference from control

acetyl- SHSNTQTLAKAPEHTG-(L-cys)-(indocyanine green derivative) [SEQ ID NO: 51]
Nerve contrast (sciatic nerves): Low

ACETYL-SHSNTQTLAKAPEHTG-(L-cys)-(Cy5)-amide (Ac-SHSNTQTLAKAPEHTGC(Cy5)-NH2; also: Cy5 on C-terminal Cys, attachment site not given here) [SEQ ID NO:31]
labeling of nerves genetically encoded with YFP (sciatic nerve; Cy5 fluorescence versus YFP and brightfield): precisely labels nerves
localization of labeling within nerve (sciatic nerve; cryosections of nerves): most localized to the epineurium of the nerves with some labeling of the perineurium and endoneurium; also recorded: labeling of epineurium, perineurium and endoneurium
tissue penetration compared to imaging in the visible range (sciatic nerve; mouse, in vivo): deeper tissue penetration
Nerve contrast (sciatic nerves): Medium/High
native peptide detectable in urine of intravenously injected mice ([1]; LC-MS): none
only fluorescently labeled entity identified in urine ([1]; MALDI): cysteine-Cy5
